Data from patent US20230398228A1, “ERIBULIN-BASED ANTIBODY-DRUG CONJUGATES AND METHODS OF USE” (EISAI R&D MANAGEMENT CO., LTD., priority 2016, published 2023).
“Also recorded” adds a separate entry of the source. Where two headings read alike, the source gives them in different places.

Key:
ZR-75 cells = test: Crystal Violet cytotoxicity assay (Example 4), ZR-75; type: cell-based, human
Method: (§1) Test reagents were serial diluted 1:3 in 2 mL deep-well dilution plates, starting at 200 nM (10 dilutions total). […] Medium was then discarded. […] Plates were read at 570 nm. Data was analyzed using GraphPad Prism 6.

NCI-N87 cells = test: Crystal Violet cytotoxicity assay (Example 4), NCI-N87; type: cell-based, human
Method: as §1

BT-474 cells = test: Crystal Violet cytotoxicity assay (Example 4), BT-474; type: cell-based, human
Method: as §1

CaOV3 cells = test: Crystal Violet cytotoxicity assay (Example 1), CaOV3; type: cell-based, human
Method: Typically, test reagents were serial diluted 1:4 in 2 mL deep-well dilution plates, starting at 1 μM (10 dilutions total). 100 μL of diluted samples were added to the cell plates (starting concentration of test samples at 500 nM). […] Medium was discarded, plates were washed once with 200 μL DPBS, stained with 50 μL of 0.2% Crystal Violet solution at room temperature for 15 min, and then washed extensively with tap water. Plates were air-dried, and Crystal Violet was dissolved with 200 μL of 1% SDS solution. Plates were read at 570 nm. […] Assays were performed using a seeding density of 1,000 cells per well and compound exposure was for a total of 5 days. When shorter-term exposure was desired, medium containing cytotoxic agents was removed after 4 hours and replaced with fresh growth medium prior to 5-day incubation. For OVCAR3, CaOV3, and NCI-H2110, cells were seeded at 3,000 cells/well and incubated for 5 days with ADC.
Screening of selected ADCs was also performed in CaOV3 (human ovarian carcinoma, FR^med(++), NCI-H2110 (human non-small cell lung carcinoma, FR^med(++), and/or OVCAR3 (human ovarian carcinoma, FR^med(++)) cells. The results of this screening are provided in Table 16.

[1] = system: Endo-12961 endometrial cancer patient-derived xenograft; test: Endometrial cancer PDx model Endo-12961
Method: (§5) Tumor fragments were implanted subcutaneously into the left flank of 40 NMRI nu/nu female mice, and tumor volume was monitored. Mice with a tumor volume of 100-160 mm^3 were randomized into one of four groups (Groups A-D, Table 39). […] Each group consisted of 8 animals. The day of randomization was designated as Day 0 of the experiment.
(§6) Tumor growth was evaluated by the measurement of two perpendicular diameters twice weekly, and tumor volume (TV), relative tumor volume (RTV) and treated/control (T/C) values were calculated. Body weight was also evaluated twice weekly as a parameter for toxicity, with the calculation of the body weight per group and body weight changes (BWC) relative to the start of treatment. Animals were sacrificed when the individual tumor volume exceeded 1 cm^3, or at the end of the study.

[2] = system: Endo-10590 endometrial cancer patient-derived xenograft; test: Endometrial cancer PDx model Endo-10590
Method: as §5, §6

[3] = system: cancer associated fibroblasts (α-smooth muscle actin) in H2110 xenograft; conditions: 5 mg/kg single dose
Method: Prior to staining, slides were dewaxed and antigen was retreived in a Lab Vision™ PT Module (Thermo Scientific), in citrate buffer (pH 6.0) pre-warmed to 85° C., using the following program: warm to 97° C.; incubate at 97° C. for 30 min; and cool to 60° C. Slides were then transferred to double distilled water at room temperature for 5 min. Staining was performed in a Lab Vision™ Autostainer 360 (Thermo Scientific). Briefly, slides were washed twice in 1×Tris-buffered saline/Tween-20 (TBST) for 6 min/wash. Tissue sections were then incubated in blocking buffer (300 μL) (10% goat serum (Jackson Immunoresearch Laboratory Inc., Cat No. 005-000-121) diluted in 3% bovine serum albumin (BSA)-phosphate buffered saline (PBS)) for 1 hour, incubated in conjugated antibody (200 μL) (Table 38) for 1 hour, and washed five times in 1×TBST for 6 min/wash. Slides were counterstained with DAPI in mounting media, and coverslipped slides were allowed to harden for 30 min. Slides were processed on a Panoramic MIDI scanner (3[sequence]), and IHC images were analyzed using Halo software (Indica Labs).
Collected tumor samples were processed on slides, and cancer associated fibroblast (CAF) expression was analyzed by IHC.

NCI-H2110 cells = conditions: Example 1
Method: (§2) Typically, test reagents were serial diluted 1:4 in 2 mL deep-well dilution plates, starting at 1 μM (10 dilutions total). 100 μL of diluted samples were added to the cell plates (starting concentration of test samples at 500 nM). […] Medium was discarded, plates were washed once with 200 μL DPBS, stained with 50 μL of 0.2% Crystal Violet solution at room temperature for 15 min, and then washed extensively with tap water. Plates were air-dried, and Crystal Violet was dissolved with 200 μL of 1% SDS solution. Plates were read at 570 nm. Data was analyzed using GraphPad Prism 6. Assays were performed using a seeding density of 1,000 cells per well and compound exposure was for a total of 5 days. When shorter-term exposure was desired, medium containing cytotoxic agents was removed after 4 hours and replaced with fresh growth medium prior to 5-day incubation. For OVCAR3, CaOV3, and NCI-H2110, cells were seeded at 3,000 cells/well and incubated for 5 days with ADC.
(§3) SJSA-1 cells are a human osteosarcoma tumor cell line that are negative for folate receptor alpha.
(§4) Typically, test reagents were serially-diluted 1:4 in 2 mL deep-well dilution plates, starting at 1 μM (10 dilutions total). 100 μL of diluted samples were added to the cell plates (starting concentration of test samples at 100 nM). […] Medium was discarded, plates were washed once with 200 μL DPBS, stained with 50 μL of 0.2% Crystal Violet solution at room temperature for 15 min, and then washed extensively with tap water. Plates were air-dried, and Crystal Violet was dissolved with 200 μL of 1% SDS solution. Plates were read at 570 nm. Data was analyzed using GraphPad Prism 6.

SJSA-1 cells = test: Crystal Violet cytotoxicity assay (Examples 1 and 2), SJSA-1
Method: as §2
In vitro potency of prepared ADCs was assessed using a Crystal Violet assay as detailed in section 1.4.1.
as §3, §4

NUGC3 cells = test: Crystal Violet cytotoxicity assay (Example 4), NUGC3; type: cell-based, human; conditions: listed as MORAb-003-VCP-eribulin
Method: as §1

HL-60 cells = test: Bystander killing assay, Nuclight Red HL-60; type: cell-based, human
Method: The day before study commencement, Nuclight™ Green (NLG) IGROV1 cells were seeded at 5,000 cells/well into 96-well round bottom plates, followed by centrifugation at 1,000 rpm for 3 min at room temperature to ensure formation of a cell pellet. The plate was placed in the vessel of an Incucyte Zoom® (EssenBio science) and incubated at 37° C./5% CO2 overnight. The program was set to collect images of cell growth, and to determine total numbers of nuclear green-stained and nuclear red-stained cells as well as phase-confluency of the cells every two hours. […] 50 μL of cytotoxin solution was added to the NLG-IGROV1 cells and incubated for 30 min. During the incubation period, Nuclight™ Red (NLR) HL-60 (FR^neg) cells were diluted to 2×10^5, 1×10^5 or 5×10^4 cell/mL with fresh media. 50 μL of the NLR-HL60 cell suspension or medium alone was added to the NLG-IGROV1 wells, followed by centrifugation at 1,000 rpm for 3 min at room temperature to ensure re-formation of the cell pellet. The plate was placed back into the vessel of Incucyte Zoom (EssenBio science) and incubated at 37° C./5% CO2 for up to 5 days. Relative cell growth of NLG-IGROV1 was determined by comparison to no ADC or free drug alone added samples using green cell counts. Relative cell growth of HL60 was done similarly, except that red cell count was determined. Determination of IC50 values for both NLG-IGROV1 and NLR-HL-60 was determined using Prism (GraphPad).
In order to assess bystander killing activity, an assay was set up using two labeled cell lines. […] Cytotoxicity was monitored by an Incucyte Zoom® cell imager.

[4] = system: LXFA-737 NSCLC patient-derived xenograft; test: NSCLC PDx model LXFA-737; type: in vivo, mouse; conditions: for Tumor Growth Inhibition: vehicle = 100
Description: Tumor implantation: NSCLC tumor fragments were obtained from LXFA-737 tumor xenografts serially passaged in nude mice. After removal from donor mice, tumors were cut into fragments (3-4 mm edge length) and placed in phosphate-buffered saline (PBS) containing 10% penicillin/streptomycin. Recipient animals were anesthetized by inhalation of isoflurane and received unilateral or bilateral tumor implants subcutaneously in the flank. Tumor xenografts were implanted with one or two tumors per mouse at a take rate <65%. In the case of a bilateral take, one of these tumors was explanted prior to randomization. Animals and tumor implants were monitored daily until solid tumor growth was detectable in a sufficient number of animals. At randomization, the volume of growing tumors was determined. […] Animals not used for experiments were euthanized.
Body weight was measured prior to dose on each dosing day, and two times per week during the study. At the end of the study, the terminal body weight was measured and recorded.

[5] = system: human BM-MSCs co-cultured with MKN-74 cells; test: 3D co-culture system (rStomach, zPredicta), MSC differentiation by flow cytometry; type: cell-based; conditions: 7 days treatment, MORAb-202 10 nM, MORAb-003 10 nM, eribulin […] and 0.2 nM (Table 41)
Method: All mesenchymal stem cell (MSC)-containing 3D co-culture experiments were conducted in zPredicta, using organ-specific 3D extracellular matrix systems such as rStomach™. Bone marrow mesenchymal stem cells (BM-MSCs) in rStomach™ were co-cultured with the Nuc Red Light MKN-74 gastric cancer cell line in quadruplicate in 48-well format for 12 days. […] Prior to culture, BM-MSCs were evaluated for target antigen expression and for markers of MSC differentiation (Table 40) by flow cytometry.
Controls included untreated and vehicle-treated (PBS and DMSO) cultures. MSC differentiation was monitored by light microscopy. Once visible differentiation was observed, samples were harvested for staining and flow cytometry analysis.
Bone marrow mesenchymal stem cells (BM-MSCs) in rStomach™ (zPredicta) were co-cultured with the MKN-74 gastric cancer cell line for 12 days. […] Once visible MSC differentiation was observed by light microscopy, samples were harvested for staining and flow cytometry analysis.

[6] = MORAb-202 5 mg/kg or eribulin 3.2 mg/kg
[7] = MORAb-202 5 mg/kg or eribulin 3.2 mg/kg, single i.v. dose
[8] = 5 mg/kg single dose i.v., Day 21, n = 6
[9] = 5 mg/kg single dose i.v., Day 32, n = 6
[10] = 5 mg/kg single dose i.v., Day 74, n = 6

MORAb-003-maleimido-PEG2-Val-Cit-pAB-eribulin [MORAb-202]
cytotoxicity on ZR-75 cells, in words (ZR-75 cells): little killing
cytotoxicity on NCI-N87 cells, in words (NCI-N87 cells): weak but specific killing
cytotoxicity on BT-474 cells, in words (BT-474 cells): little killing
IC50 (CaOV3 cells; CaOV3 cells, mean of replicate experiments, where performed): 3.7 nM
cytotoxicity on CaOV3 cells, in words (CaOV3 cells; Example 1): potent cytotoxicity
tumor re-growth during the study, in words [1, 6]: no significant tumor re-growth
anti-tumor activity, in words [1, 7]: significant anti-tumor activity
effect on body weight, in words ([1]; first week post-treatment): no body weight loss
tumor re-growth during the study, in words [2, 6]: no significant tumor re-growth
anti-tumor activity, in words [2, 7]: significant anti-tumor activity
effect on body weight, in words ([2]; first week post-treatment): no body weight loss
CAF network structure (anti-α-SMA-FITC staining), in words ([3]; Day 3 and Day 5): prominent
CAF network structure (anti-α-SMA-FITC staining), in words ([3]; by Day 7): significantly diminished
cytotoxicity on NCI-H2110 cells, in words (NCI-H2110 cells): potent cytotoxicity
IC50 (NCI-H2110 cells; read-out: IC50 on NCI-H2110): 0.73 nM
killing of FR-negative SJSA-1 cells (off-target), in words (SJSA-1 cells; Example 1 screening): little killing
IC50 (SJSA-1 cells; read-out: Cytotoxicity (IC50) SJSA-1, SJSA-1 cells, mean of replicate experiments, where performed): > 100 nM
EC50 (SJSA-1 cells; read-out: cytotoxicity (EC50) on SJSA-1 cells, Example 2): > 100 nM
cytotoxicity on NUGC3 cells, in words (NUGC3 cells): little killing; also recorded: low cytotoxicity
EC50 (HL-60 cells; HL-60 (FR-negative) cells alone, read-out: EC50, HL-60): 39.7 nM
EC50 (HL-60 cells; HL-60 co-cultured with IGROV1, read-out: EC50, HL-60 (co-culture with IGROV-1)): 0.24 nM
body weight loss versus vehicle, in words ([4]; 5 mg/kg single dose): no significant body weight loss
Tumor Volume [4, 8]: 22.9 mm^3
Tumor Growth Inhibition [4, 8]: (2.3) %
Tumor Volume [4, 9]: 4.7 mm^3
Tumor Growth Inhibition [4, 9]: (0.3) %
Tumor Volume [4, 10]: 418.3 mm^3
tumor-free mice [4, 10]: (4/6 tumor-free)
mice considered tumor-free at Day 32 ([4]; 5 mg/kg single dose, six mice): Five of the six
mice that remained tumor-free through Day 74 ([4]; 5 mg/kg single dose, six mice): four
anti-tumor activity, in words ([4]; 5 mg/kg single i.v. dose): significant tumor regression
Percentage of live cells, Pericytes ([5]; PBS 14.6%): 11.4%
Percentage of live cells, Adipocytes ([5]; PBS […]): 22.6%
Percentage of live cells, MSCs ([5]; PBS […]): 43.7%
